In article PMC9069370, “Integrated Design of a Membrane‐Lytic Peptide‐Based Intravenous Nanotherapeutic Suppresses Triple‐Negative Breast Cancer” (Advanced Science, 2022):
Peptide text beside a SMILES is read from it.

What was measured:
[1] = Tryptophan fluorescent binding assay; conditions: tryptophan fluorescence; 50 µM peptide, lipid titrated 0-5000 µM; phosphate buffered saline 1X, pH 7.4; values as lipid per peptide
Experimental: 50 µM ACP peptides and varied concentrations (concentrations: 0, 25, 50, 100, 150, 200, 250, 500, 1250, and 2500 µM) of POPC or POPC:POPG (3:1 ratio) large unilamellar vesicles were prepared in 10 mM phosphate buffer (pH 7.0). The solutions were measured after 1 h of incubation. Excitation was fixed at 280 nm (slit 9 nm) and emission was collected from 300 to 450 nm (slit 9 nm). The spectra were recorded using Cytation 5 Cell Imaging Multi‐Mode Reader from BioTek and were averaged by three scans.
Lipid Concentration-induced
Name Sequence† 50% Peptide Binding (L/P)
Extended Data Table 3 | Tryptophan binding assay. […]
peptide binding onto liposome. 50 µM peptides were fixed and incubated with titrated lipid (POPC vesicle […]
phosphate buffered saline (1X, pH 7.4). The lipid concentration that causes 50 % peptide binding was determined using tryptophan fluorescent binding assay and the values are shown as lipid per peptide.

HMLER‐shEcad = experiment: cells; type: cell-based, human; conditions: 72 h
Text: (§1) […], and MCF-10A cells were maintained in MEGM with supplements and growth factors bovine pituitary extract, hydrocortisone, human epidermal growth factor, insulin, and gentamicin/amphotericin-B.

MCF‐10A = experiment: cells; type: cell-based, human; conditions: 72 h
Text: as §1

HMLER = experiment: cells; type: cell-based, human; conditions: 72 h
Text: as §1

[2] = ANTS/DPX liposome leakage assay; conditions: for Peptide Concentration-induced 50 % ANTS/DPX leakage at pH 4.8 (L/P), 3POPC/1POPG Vesicle / Peptide Concentration-induced 50 % ANTS/DPX leakage at pH 4.8 (L/P), POPC Vesicle / Peptide Concentration-induced 50 % ANTS/DPX leakage at pH 7.4 (L/P), 3POPC/1POPG Vesicle / Peptide Concentration-induced 50 % ANTS/DPX leakage at pH 7.4 (L/P), POPC Vesicle: 0.5 mM vesicles, peptide 0-20 µM, 3 h incubation, lipid per peptide; for Peptide Concentration-induced 50 % ANTS/DPX leakage at pH 4.8 (L/P), 3POPC/1POPG Vesicle / Peptide Concentration-induced 50 % ANTS/DPX leakage at pH 4.8 (L/P), POPC Vesicle: HCl-adjusted PBS 1X pH 4.8; for Peptide Concentration-induced 50 % ANTS/DPX leakage at pH 7.4 (L/P), 3POPC/1POPG Vesicle / Peptide Concentration-induced 50 % ANTS/DPX leakage at pH 7.4 (L/P), POPC Vesicle: PBS 1X pH 7.4, high ratio = more potent
Experimental: Vesicle preparation: 5 mM ANTS and 12.5 mM DPX were entrapped in 0.1 µm diameter extruded vesicles (either POPC or POPC/POPG at a ratio of 3:1) with lipids. Gel filtration chromatography of Sephadex G‐100 was used to remove external free ANTS/DPX from LUVs with entrapped contents. LUVs were diluted to 0.5 mM and used to measure the leakage activity by the addition of aliquots of ACPs. Leakage was measured after 3 h incubation. 10% Triton was used as the positive control to measure the maximum leakage of the vesicle. Fluorescence emission spectra were recorded using excitation and emission wavelength of 350 and 510 nm for ANTS/DPX using a BioTek Synergy H1 Hybrid Multi‐Mode Reader.
Peptide Concentration-induced Peptide Concentration-induced
Name Sequence† 50 % ANTS/DPX leakage 50 % ANTS/DPX leakage at pH 7.4 (L/P) at pH 4.8 (L/P)
POPC Vesicle 3POPC/1POPG Vesicle POPC Vesicle 3POPC/1POPG Vesicle […]
Extended Data Table 4 | Peptide concentration-induced 50 % ANTS/DPX liposome leakage. 0.5 mM POPC and 3POPC/1POPG vesicles were fixed and incubated with titrated peptide concentration (0, 0.02, […]
hydrochloric acid-adjusted phoshate buffered saline (1X, pH 4.8). The values are shown as lipid per

U2OS = type: cell-based, human; conditions: 72 h
HEK293T = experiment: cells; type: cell-based, human; conditions: 72 h

| Compound | Lipid Concentration-induced 50% Peptide Binding (L/P), 3POPC/1POPG Vesicle [1] | Lipid Concentration-induced 50% Peptide Binding (L/P), POPC Vesicle [1] | IC50 (HMLER‐shEcad) | IC50 (MCF‐10A) | IC50 (HMLER) | IC50 (U2OS) | Peptide Concentration-induced 50 % ANTS/DPX leakage at pH 4.8 (L/P), 3POPC/1POPG Vesicle [2] | Peptide Concentration-induced 50 % ANTS/DPX leakage at pH 4.8 (L/P), POPC Vesicle [2] | Peptide Concentration-induced 50 % ANTS/DPX leakage at pH 7.4 (L/P), 3POPC/1POPG Vesicle [2] | Peptide Concentration-induced 50 % ANTS/DPX leakage at pH 7.4 (L/P), POPC Vesicle [2] | IC50 (HEK293T) | change of ANTS/DPX dye leakage / liposome selectivity at pH 4.8 ([2]; pH = 4.8 compared with physiological pH, anionic versus neutral liposomes) |
| --- | --- | --- | --- | --- | --- | --- | --- | --- | --- | --- | --- | --- |
| CC(C)C[C@H](NC(=O)CN)C(=O)N[C@@H](CC(C)C)C(=O)N[C@@H](CC(=O)O)C(=O)N[C@@H](CC(C)C)C(=O)N[C@@H](CC(C)C)C(=O)N[C@@H](Cc1c[nH]cn1)C(=O)N[C@@H](CC(C)C)C(=O)N[C@@H](CC(C)C)C(=O)N[C@@H](CC(C)C)C(=O)N[C@@H](Cc1c[nH]cn1)C(=O)N[C@@H](C)C(=O)N[C@@H](C)C(=O)NCC(=O)N[C@@H](Cc1c[nH]c2ccccc12)C(N)=O [DHH] (H-GLLDLLHLLLHAAGW-NH2) | 0.28 L/P | 0.67 L/P | 11.9 ± 0.14 µM | > 200 µM | 21.4 ± 2.47 µM | 55.9 ± 18.9 µM | 98 L/P | 106 L/P | 692 L/P | 684 L/P | 6.4 ± 0.42 µM |  |
| CC(C)C[C@H](NC(=O)CN)C(=O)N[C@@H](CC(C)C)C(=O)N[C@@H](CC(=O)O)C(=O)N[C@@H](CC(C)C)C(=O)N[C@@H](CC(C)C)C(=O)N[C@@H](CCCCN)C(=O)N[C@@H](CC(C)C)C(=O)N[C@@H](CC(C)C)C(=O)N[C@@H](CC(C)C)C(=O)N[C@@H](CCC(=O)O)C(=O)N[C@@H](C)C(=O)N[C@@H](C)C(=O)NCC(=O)N[C@@H](Cc1c[nH]c2ccccc12)C(N)=O [DKE] (H-GLLDLLKLLLEAAGW-NH2) | 0.46 L/P | 0.56 L/P | 1.57 ± 0.33 µM | 4.75 ± 0.49 µM | 2.1 µM | 9.93 ± 0.25 µM | 469 L/P | 21 L/P | 411 L/P | 747 L/P | 7.8 ± 1.41 µM |  |
| CC(C)C[C@H](NC(=O)CN)C(=O)N[C@@H](CC(C)C)C(=O)N[C@@H](CC(=O)O)C(=O)N[C@@H](CC(C)C)C(=O)N[C@@H](CC(C)C)C(=O)N[C@@H](CCCCN)C(=O)N[C@@H](CC(C)C)C(=O)N[C@@H](CC(C)C)C(=O)N[C@@H](CC(C)C)C(=O)N[C@@H](Cc1c[nH]cn1)C(=O)N[C@@H](C)C(=O)N[C@@H](C)C(=O)NCC(=O)N[C@@H](Cc1c[nH]c2ccccc12)C(N)=O [DKH] (H-GLLDLLKLLLHAAGW-NH2) | 0.46 L/P | 10.00 L/P | 2.8 ± 0.28 µM | 7.05 ± 0.21 µM | 3.45 ± 0.07 µM | 21.1 ± 3.01 µM | 58 L/P | 41 L/P | 274 L/P | 614 L/P | 6.15 ± 1.34 µM |  |
| CC(C)C[C@H](NC(=O)CN)C(=O)N[C@@H](CC(C)C)C(=O)N[C@@H](CC(=O)O)C(=O)N[C@@H](CC(C)C)C(=O)N[C@@H](CC(C)C)C(=O)N[C@@H](CCCCN)C(=O)N[C@@H](CC(C)C)C(=O)N[C@@H](CC(C)C)C(=O)N[C@@H](CC(C)C)C(=O)N[C@@H](CCCCN)C(=O)N[C@@H](C)C(=O)N[C@@H](C)C(=O)NCC(=O)N[C@@H](Cc1c[nH]c2ccccc12)C(N)=O [DKK] (H-GLLDLLKLLLKAAGW-NH2) | 6.88 L/P | 2.75 L/P | 1.2 ± 0.14 µM | 2.57 ± 0.52 µM | 1.95 ± 0.35 µM | 10.4 ± 1.7 µM | 227 L/P | 47 L/P | 156 L/P | 463 L/P | 3.4 ± 0.28 µM |  |

Further lines, with some results ahead:

| Lipid Concentration-induced 50% Peptide Binding (L/P), 3POPC/1POPG Vesicle [1] | Lipid Concentration-induced 50% Peptide Binding (L/P), POPC Vesicle [1] | IC50 (HMLER‐shEcad) | IC50 (MCF‐10A) | IC50 (HMLER) | IC50 (U2OS) | Compound | Peptide Concentration-induced 50 % ANTS/DPX leakage at pH 4.8 (L/P), 3POPC/1POPG Vesicle [2] | Peptide Concentration-induced 50 % ANTS/DPX leakage at pH 4.8 (L/P), POPC Vesicle [2] | Peptide Concentration-induced 50 % ANTS/DPX leakage at pH 7.4 (L/P), 3POPC/1POPG Vesicle [2] | Peptide Concentration-induced 50 % ANTS/DPX leakage at pH 7.4 (L/P), POPC Vesicle [2] | IC50 (HEK293T) | change of ANTS/DPX dye leakage / liposome selectivity at pH 4.8 ([2]; pH = 4.8 compared with physiological pH, anionic versus neutral liposomes) |
| --- | --- | --- | --- | --- | --- | --- | --- | --- | --- | --- | --- | --- |
| 0.69 L/P | 0.94 L/P | 16.1 ± 3.18 µM | 150 ± 71 µM | 25.4 ± 2.76 µM | 117 ± 7 µM | CC(C)C[C@H](NC(=O)CN)C(=O)N[C@@H](CC(C)C)C(=O)N[C@@H](CCC(=O)O)C(=O)N[C@@H](CC(C)C)C(=O)N[C@@H](CC(C)C)C(=O)N[C@@H](Cc1c[nH]cn1)C(=O)N[C@@H](CC(C)C)C(=O)N[C@@H](CC(C)C)C(=O)N[C@@H](CC(C)C)C(=O)N[C@@H](Cc1c[nH]cn1)C(=O)N[C@@H](C)C(=O)N[C@@H](C)C(=O)NCC(=O)N[C@@H](Cc1c[nH]c2ccccc12)C(N)=O [EHH] (H-GLLELLHLLLHAAGW-NH2) | 80 L/P | 386 L/P | 981 L/P | 1043 L/P | 5.9 ± 0.14 µM | increased selectivity for neutral bilayers |
| 0.42 L/P | 0.56 L/P | 0.71 ± 0.13 µM | 3.6 ± 0.99 µM | 1.35 ± 0.35 µM | 25 µM | CC(C)C[C@H](NC(=O)CN)C(=O)N[C@@H](CC(C)C)C(=O)N[C@@H](CCC(=O)O)C(=O)N[C@@H](CC(C)C)C(=O)N[C@@H](CC(C)C)C(=O)N[C@@H](Cc1c[nH]cn1)C(=O)N[C@@H](CC(C)C)C(=O)N[C@@H](CC(C)C)C(=O)N[C@@H](CC(C)C)C(=O)N[C@@H](CCCCN)C(=O)N[C@@H](C)C(=O)N[C@@H](C)C(=O)NCC(=O)N[C@@H](Cc1c[nH]c2ccccc12)C(N)=O [EHK] (H-GLLELLHLLLKAAGW-NH2) | 117 L/P | 55 L/P | 505 L/P | 981 L/P | 5.35 ± 0.07 µM |  |
| 1.63 L/P | 2.75 L/P | 1.3 ± 0.14 µM | 8.8 µM | 1.8 ± 0.28 µM | 8 ± 0.71 µM | CC(C)C[C@H](NC(=O)CN)C(=O)N[C@@H](CC(C)C)C(=O)N[C@@H](CCC(=O)O)C(=O)N[C@@H](CC(C)C)C(=O)N[C@@H](CC(C)C)C(=O)N[C@@H](CCCCN)C(=O)N[C@@H](CC(C)C)C(=O)N[C@@H](CC(C)C)C(=O)N[C@@H](CC(C)C)C(=O)N[C@@H](CCC(=O)O)C(=O)N[C@@H](C)C(=O)N[C@@H](C)C(=O)NCC(=O)N[C@@H](Cc1c[nH]c2ccccc12)C(N)=O [EKE] (H-GLLELLKLLLEAAGW-NH2) | 438 L/P | 75 L/P | 657 L/P | 738 L/P | 5.15 ± 0.21 µM |  |
| 0.19 L/P | 0.75 L/P | 2.18 ± 0.31 µM | 7.9 ± 0.42 µM | 2.75 ± 0.07 µM | 23.8 ± 0.81 µM | CC(C)C[C@H](NC(=O)CN)C(=O)N[C@@H](CC(C)C)C(=O)N[C@@H](CCC(=O)O)C(=O)N[C@@H](CC(C)C)C(=O)N[C@@H](CC(C)C)C(=O)N[C@@H](CCCCN)C(=O)N[C@@H](CC(C)C)C(=O)N[C@@H](CC(C)C)C(=O)N[C@@H](CC(C)C)C(=O)N[C@@H](Cc1c[nH]cn1)C(=O)N[C@@H](C)C(=O)N[C@@H](C)C(=O)NCC(=O)N[C@@H](Cc1c[nH]c2ccccc12)C(N)=O [EKH] (H-GLLELLKLLLHAAGW-NH2) | 88 L/P | 55 L/P | 365 L/P | 608 L/P | 6.65 ± 1.34 µM |  |
